The values below come from patent publication US20230219969A1 (priority 2020, published 2023).

For assay [1], the target named is T1, 5-HT2C edited (accession number AAF35842.1) (Homo sapiens, UniProt P28335, I156V/I160V/N158S). The experiment in a line: biochemical. It counts as binding.
Target sequence in this assay (P28335 whole entry I156V/N158S/I160V, looked up): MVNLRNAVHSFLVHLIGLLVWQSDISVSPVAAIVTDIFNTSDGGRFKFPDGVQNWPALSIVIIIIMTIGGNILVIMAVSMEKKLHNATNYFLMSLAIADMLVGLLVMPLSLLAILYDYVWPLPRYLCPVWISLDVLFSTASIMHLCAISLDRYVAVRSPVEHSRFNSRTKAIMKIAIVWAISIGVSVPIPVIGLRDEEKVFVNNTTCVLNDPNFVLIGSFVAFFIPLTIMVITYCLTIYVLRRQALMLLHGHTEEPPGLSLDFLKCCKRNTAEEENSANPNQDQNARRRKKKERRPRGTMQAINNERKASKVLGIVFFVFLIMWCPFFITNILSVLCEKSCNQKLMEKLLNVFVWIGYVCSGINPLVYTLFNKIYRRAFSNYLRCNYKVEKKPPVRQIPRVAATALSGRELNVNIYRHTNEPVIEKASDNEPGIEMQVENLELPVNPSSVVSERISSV
The target in assay [2] is T1, 5-HT2C edited (accession number AAF35842.1). Nature of the assay: cell-based.
Target sequence in this assay (P28335 33-458 I156V/N158S/I160V limits assumed): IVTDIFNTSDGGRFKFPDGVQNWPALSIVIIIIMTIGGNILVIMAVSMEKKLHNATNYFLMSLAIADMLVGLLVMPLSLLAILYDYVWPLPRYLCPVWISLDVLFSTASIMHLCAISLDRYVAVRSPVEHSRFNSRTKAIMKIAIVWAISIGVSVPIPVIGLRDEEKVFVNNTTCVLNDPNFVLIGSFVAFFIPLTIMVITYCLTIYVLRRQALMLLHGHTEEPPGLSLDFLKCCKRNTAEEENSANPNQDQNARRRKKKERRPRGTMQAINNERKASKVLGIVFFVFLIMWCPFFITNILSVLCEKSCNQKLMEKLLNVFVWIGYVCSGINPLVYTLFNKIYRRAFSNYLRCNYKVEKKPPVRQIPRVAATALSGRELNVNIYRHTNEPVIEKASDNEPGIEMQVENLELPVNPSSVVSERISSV

SMILES strings stand for the structures.

In assay [1], `COc1cc2ccn(C[C@@H](C)N(C)C)c2cn1` [Example 33, (R)-1-(5-methoxy-1H-pyrrolo[2,3-c]pyridin-1-yl)-N,N-dimethylpropan-2-amine] came in with a 50% inhibitory concentration (IC50) above 10 µM. For the same compound, the concentration giving a half-maximal response (EC50) in assay [2] was above 10 µM.
In assay [1], `COc1cnc2c(ccn2C[C@@H](C)N)c1` [Example 34, (R)-1-(5-methoxy-1H-pyrrolo[2,3-b]pyridin-1-yl)propan-2-amine] gave an IC50 of 1 to 10 µM. For the same compound, the EC50 in assay [2] fell in the range of 1 to 10 µM.
`COc1ccc2c(c1)CN(CCN(C)C)C2` [Example 10, 2-(5-methoxyisoindolin-2-yl)-N,N-dimethylethan-1-amine] returned an IC50 in assay [1] of 1 to 10 µM. The compound further had an EC50 in assay [2] of 1 to 10 µM.
As to `COc1ccc2c(ccn2[C@H]2C[C@@H](N(C)C)C2)c1` [Example 24, (1s,3s)-3-(5-methoxy-1H-indol-1-yl)-N,N-dimethylcyclobutan-1-amine], in assay [1], the IC50 is 1 to 10 µM. In assay [2], this compound gave an EC50 above 10 µM.
The like results for `COc1ccc2c(ccn2CC(C)(C)N(C)C)c1F` [Example 15, 1-(4-fluoro-5-methoxy-1H-indol-1-yl)-N,N,2-trimethylpropan-2-amine] were, in that order, above 10 µM and above 10 µM.

Broadly, the IC50 is the concentration needed to halve the response being measured. Lower therefore signals inhibition by little substance. Usually EC50 stands for the concentration at which the effect is half-maximal. Lower therefore signals an effect from little substance.
